Results published in patent publication US10857105B2, “Compounds and compositions for intracellular delivery of therapeutic agents” (ModernaTX, Inc., priority 2017, dated 2020).

Key:
[1] = Particle size and polydispersity index of nanoparticle compositions (Zetasizer Nano ZS); assay type: physicochemical
How it was run: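 Formulations of ionizable lipid, DSPC, cholesterol and PEG-DMG (50:10:38.5:1.5 mol %) carrying Luc or hEPO mRNA with all uridines as N1-methyl pseudouridine. Dynamic light scattering in 1×PBS gave particle size and polydispersity; zeta potential read in 15 mM PBS.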

modified luciferase = experiment: Luciferase expression in liver, lung, spleen and femur 6 hours after intravenous administration to mice; assay type: in vivo; settings: 6 hours after intravenous 0.5 mpk, mice
How it was run: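 Mice (n=3) got a single 0.5 mpk IV dose of each nanoparticle composition, with MC3 and PBS controls alongside. Organ luminescence flux was read 6 h post-dose.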

luciferase (Luc) mRNA = experiment: Luciferase expression (whole body bioluminescence) after intravenous administration to mice; assay type: in vivo; settings: for Novel lipid/MC3 expression ratio, i.v.: 6 hr. time point, relative to MC3 formulation
Method: In order to monitor how effectively various nanoparticle compositions deliver therapeutic and/or prophylactics to targeted cells, different nanparticle compositions including a particular therapeutic and/or prophylactic (for example, a modified or naturally occurring RNA such as an mRNA) are prepared and administered to rodent populations. Mice are intravenously, intramuscularly, intraarterially, or intratumorally administered a single dose including a nanoparticle composition with a formulation such as those provided in Example 3. In some instances, mice may be made to inhale doses. Dose sizes may range from 0.001 mg/kg to 10 mg/kg, where 10 mg/kg describes a dose including 10 mg of a therapeutic and/or, prophylactic in a nanoparticle composition for each 1 kg of body mass of the mouse. A control composition including PBS may also be employed.
Upon administration of nanoparticle compositions to mice, dose delivery profiles, dose responses, and toxicity of particular formulations and doses thereof can be measured by enzyme-linked immunosorbent assays (ELISA), bioluminescent imaging, or other methods. For nanoparticle compositions including mRNA, time courses of protein expression can also be evaluated. Samples collected from the rodents for evaluation may include blood, sera, and tissue (for example, muscle tissue from the site of an intramuscular injection and internal tissue); sample collection may involve sacrifice of the animals.
The efficacy of the nanoparticle compositions presented in Table 1A was evaluated with a bioluminescence study. Formulations were administered intravenously to mice (n=6) at a dosage of 0.5 mg/kg (mpk) and bioluminescence measured at 3, 6, and 24 hour time points. The standard MC3 formulation and, in some instances, a control (e.g., a PBS control) were evaluated for comparison. […] In general, flux decreased as time progressed to less than 10% of the initial flux.
The total flux (measured by area under the curve, AUC) induced by administration of a formulation including a given lipid relative to that induced by administration of a formulation including MC3 was also measured for several lipids.

[2] = Encapsulation efficiency of RNA in nanoparticle compositions (RIBOGREEN assay); assay type: physicochemical; settings: Table 1A; lipid:DSPC:cholesterol:PEG-DMG 50:10:38.5:1.5 mol %
How it was run: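 Lipid nanoparticles (ionisable lipid:DSPC:cholesterol:PEG-DMG 50:10:38.5:1.5 mol %) carrying N1-methylpseudouridine luciferase or hEPO mRNA diluted to about 5 μg/mL in TE, pH 7.5, with or without 2% Triton X-100, 15 min at 37° C. RiboGreen fluorescence (ex ~480, em ~520 nm) blank-subtracted; free RNA = intact/disrupted signal.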

[3] = Table 1A, lipid:DSPC:cholesterol:PEG-DMG 50:10:38.5:1.5 mol %
[4] = intravenous administration (Table 3D)

SMILES: CCCCCCCCCC(=O)OCCCCCCCN(CCO)CCCCCCCC(=O)OC(CCCCCCCC)CCCCCCCC [Compound 96, 7-((8-(Heptadecan-9-yloxy)-8-oxooctyl)(2-hydroxyethyl)amino)heptyl decanoate]
- Size [1, 3]: 120.5 nm
- Size ([1]; Table 1D, compositions for subcutaneous administration, # formulated with hEPO mRNA): 82.6 nm
- Total Flux, Liver (modified luciferase): 1.56E+10
- Total Flux, Lung (modified luciferase): 3.43E+07
- Total Flux, Spleen (modified luciferase): 3.39E+08
- AUC (luciferase (Luc) mRNA; [4]): 1.209E+012 p/s*h
- EE [2]: 79.04%

SMILES: CCCCCCCCCOC(=O)CCCCCCCN(CCCCCCCC(=O)OC(CCCCCCCC)CCCCCCCC)CCN1CCOCC1 [Compound 103, Heptadecan-9-yl 8-((2-morpholinoethyl)(8-(nonyloxy)-8-oxooctyl)amino)octanoate]
- Size [1, 3]: 78.8 nm
- Total Flux, Liver (modified luciferase): 8.48E+07
- Total Flux, Lung (modified luciferase): 2.06E+05
- Total Flux, Spleen (modified luciferase): 2.65E+06
- AUC (luciferase (Luc) mRNA; i.v. administration (Table 3C)): 2.4E+10 h*p/s
- EE [2]: 90.77%

SMILES: CCCCCCCCCOC(=O)CCCCCCCN(CCCCCCCC(=O)OC(CCCCCCCC)CCCCCCCC)CCCNC(=S)NC [Compound 113, Heptadecan-9-yl 8-((3-(3-methylthioureido)propyl)(8-(nonyloxy)-8-oxooctyl)amino)octanoate]
- Size [1, 3]: 86.8 nm
- Size ([1]; Table 1C, compositions for subcutaneous administration): 83.9 nm
- Total Flux, Liver (modified luciferase): 1.11E+09
- Total Flux, Lung (modified luciferase): 5.55E+06
- Total Flux, Spleen (modified luciferase): 5.22E+07
- Novel lipid/MC3 ratio, i.v. (luciferase (Luc) mRNA; Table 3G, intravenous, luciferase, 6 hr. timepoint, relative to MC3): 0.59
- Novel lipid/MC3 expression ratio, i.v. (luciferase (Luc) mRNA; intravenous, luciferase): 0.59

SMILES: CCCCCCCCCOC(=O)CCCCCCCN(CCO)CCCCCCCOP(=O)(OCCCCCCCC)OCCCCCCCC [Compound 131, Nonyl 8-((7-((bis(octyloxy)phosphoryl)oxy)heptyl)(2-hydroxyethyl)amino)octanoate]
- Total Flux, Liver (modified luciferase): 3.52E+08
- Total Flux, Lung (modified luciferase): 1.45E+07
- Total Flux, Spleen (modified luciferase): 8.32E+08
- AUC (luciferase (Luc) mRNA; i.v. administration (Table 3C)): 9.29E+10 h*p/s
- EE [2]: 75.44%

SMILES: CCCCCCCCOP(=O)(OCCCCCCCC)OCCCCCCCN(CCO)CCCCCCCC(=O)OC(C)CCCCCCCC (stereo not shown) [Compound 132, Decan-2-yl 8-((7-((bis(octyloxy)phosphoryl)oxy)heptyl)(2-hydroxyethyl)amino)octanoate]
- Total Flux, Liver (modified luciferase): 1.49E+08
- Total Flux, Lung (modified luciferase): 1.39E+07
- Total Flux, Spleen (modified luciferase): 3.37E+08
- AUC (luciferase (Luc) mRNA; i.v. administration (Table 3C)): 1.75E+10 h*p/s
- EE [2]: 30.77%

SMILES: CCCCCCCCC(CCCCCCCC)OC(=O)CCCCCCCN(CCO)CCCCCCCC(=O)N(C)CCCCCCCC [Compound 145, Heptadecan-9-yl 8-((2-hydroxyethyl)(8-(methyl(octyl)amino)-8-oxooctyl)amino)octanoate]
- Total Flux, Liver (modified luciferase): 5.01E+08
- Total Flux, Lung (modified luciferase): 1.36E+07
- Total Flux, Spleen (modified luciferase): 4.25E+08
- AUC (luciferase (Luc) mRNA; i.v. administration (Table 3C)): 8.1E+10 h*p/s
- EE [2]: 89.15%

SMILES: CCCCCCCCC(CCCCCCCC)OC(=O)CCCCCCCN(CCO)CCCCCCCC(=O)OCC(CCCCCCC)OC (stereo not shown) [Compound 148, Heptadecan-9-yl 8-((2-hydroxyethyl)(8-((2-methoxynonyl)oxy)-8-oxooctyl)amino)octanoate]
- Total Flux, Liver (modified luciferase): 4.39E+09
- Total Flux, Lung (modified luciferase): 3.27E+07
- Total Flux, Spleen (modified luciferase): 2.71E+09
- AUC (luciferase (Luc) mRNA; [4]): 4.965E+011 p/s*h
- EE [2]: 25.49%

SMILES: CCCCCCCCC(CCCCCCCC)OC(=O)CCCCCCCN(C)CCCCCCCCCC(=O)OCCCCCCC [Compound 149, Heptyl 10-((8-(heptadecan-9-yloxy)-8-oxooctyl)(methyl)amino)decanoate]
- Size [1, 3]: 62.1 nm
- Total Flux, Liver (modified luciferase): 1.11E+09
- Total Flux, Lung (modified luciferase): 2.69E+06
- Total Flux, Spleen (modified luciferase): 2.71E+07
- AUC (luciferase (Luc) mRNA; [4]): 1.057E+011 p/s*h

SMILES: CCCCCCCCCOC(=O)CCCCCCCN(CCO)CCCCCCC/C=C\C(CCCCCCCC)CCCCCCCC [Compound 152, Nonyl (Z)-8-((2-hydroxyethyl)(10-octyloctadec-8-en-1-yl)amino)octanoate]
- Size [1, 3]: 62.6 nm
- Total Flux, Liver (modified luciferase): 1.43E+08
- Total Flux, Lung (modified luciferase): 3.16E+05
- Total Flux, Spleen (modified luciferase): 6.63E+06
- AUC (luciferase (Luc) mRNA; [4]): 2.855E+010 p/s*h

SMILES: CCCCCCCCCOC(=O)CCCCCCCN(CCO)CCCCCCCCCC(CCCCCCCC)CCCCCCCC [Compound 153, Nonyl 8-((2-hydroxyethyl)(10-octyloctadecyl)amino)octanoate]
- Size [1, 3]: 83.7 nm
- Total Flux, Liver (modified luciferase): 1.18E+09
- Total Flux, Lung (modified luciferase): 6.42E+06
- Total Flux, Spleen (modified luciferase): 1.42E+08
- AUC (luciferase (Luc) mRNA; [4]): 2.697E+011 p/s*h

SMILES: CCCCCCCCC(CCCCCCCC)OC(=O)CCCCCCCN(CCO)CCCCCCCC(=O)OC(C)(C)C [Compound 155, tert-Butyl 8-((8-(heptadecan-9-yloxy)-8-oxooctyl)(2-hydroxyethyl)amino)octanoate]
- Total Flux, Liver (modified luciferase): 8.58E+08
- Total Flux, Lung (modified luciferase): 1.00E+07
- Total Flux, Spleen (modified luciferase): 2.77E+08
- AUC (luciferase (Luc) mRNA; [4]): 1.266E+011 p/s*h
- EE [2]: 37.36%

SMILES: CCCCCCCCCOC(=O)CCCCCCCN(CCO)CCCCCCCC(=O)OC(C)(C)C [Compound 158, tert-Butyl 8-((2-hydroxyethyl)(8-(nonyloxy)-8-oxooctyl)amino)octanoate]
- Total Flux, Liver (modified luciferase): 1.99E+05
- Total Flux, Lung (modified luciferase): 1.71E+04
- Total Flux, Spleen (modified luciferase): 1.17E+05
- AUC (luciferase (Luc) mRNA; [4]): 1.211E+007 p/s*h
- EE [2]: 35.70%

SMILES: CCCCCCCCCOC(=O)CCCCCCCN(CCO)CCN(CCO)CCCCCCCC(=O)OC(CCCCCCCC)CCCCCCCC [Compound 159, Heptadecan-9-yl 8-((2-hydroxyethyl)(2-((2-hydroxyethyl)(8-(nonyloxy)-8-oxooctyl)amino)ethyl)amino)octanoate]
- Size [1, 3]: 75.9 nm
- Total Flux, Liver (modified luciferase): 1.13E+06
- Total Flux, Lung (modified luciferase): 2.17E+05
- Total Flux, Spleen (modified luciferase): 7.24E+05
- AUC (luciferase (Luc) mRNA; [4]): 1.355E+008 p/s*h

SMILES: CCCCCCCCCOC(=O)CCCCCCCN(CCCCCCCC(=O)OC(CCCCCCCC)CCCCCCCC)CCCNC(=O)COC [Compound 178, Heptadecan-9-yl 8-((3-(2-methoxyacetamido)propyl)(8-(nonyloxy)-8-oxooctyl)amino)octanoate]
- Size [1, 3]: 104.2 nm
- Novel lipid/MC3 expression ratio, i.v. (luciferase (Luc) mRNA; intravenous, luciferase): 0.03
- EE [2]: 94.7%

SMILES: CCCCCCCCCOC(=O)CCCCCCCN(CCCCCCCC(=O)OC(CCCCCCCC)CCCCCCCC)CCCn1cc(CO)nn1 [Compound 218, Heptadecan-9-yl 8-((3-(4-(hydroxymethyl)-1H-1,2,3-triazol-1-yl)propyl)(8-(nonyloxy)-8-oxooctyl)amino)octanoate]
- Size [1, 3]: 81.4 nm
- Novel lipid/MC3 expression ratio, i.v. (luciferase (Luc) mRNA; intravenous, luciferase): >0.01
- EE [2]: 98.8%
